The record followed here is patent US10654837B2, “Sulphamoylaryl derivatives and use thereof as medicaments for the treatment of liver fibrosis” (Janssen Pharmaceutica NV, priority 2017, dated 2020).

pIC50: −log10 of the molar value.

T1 sequence (P41595 whole entry): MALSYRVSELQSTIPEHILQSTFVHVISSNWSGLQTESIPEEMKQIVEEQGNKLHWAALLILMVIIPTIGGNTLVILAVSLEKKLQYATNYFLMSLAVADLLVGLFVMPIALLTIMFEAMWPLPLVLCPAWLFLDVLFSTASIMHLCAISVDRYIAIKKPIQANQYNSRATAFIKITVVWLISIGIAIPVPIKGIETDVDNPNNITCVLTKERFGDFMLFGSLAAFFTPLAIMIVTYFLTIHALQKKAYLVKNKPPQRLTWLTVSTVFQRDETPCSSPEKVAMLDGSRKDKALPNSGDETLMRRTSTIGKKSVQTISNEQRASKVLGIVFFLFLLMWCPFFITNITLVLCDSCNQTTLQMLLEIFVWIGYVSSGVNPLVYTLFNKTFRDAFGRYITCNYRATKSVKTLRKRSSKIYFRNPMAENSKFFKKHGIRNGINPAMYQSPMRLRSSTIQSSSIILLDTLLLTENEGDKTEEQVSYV

The experiment concerns the target T1, 5HTR2B (Homo sapiens, UniProt P41595).
T1 construct: host or cells: human Maverick/293 cells
The experiment is described as follows: 5HTR2B antagonist activity, calcium mobilization assay in human Maverick/293 cells (serotonin as agonist). The class given is cell-based. As to conditions: intracellular calcium, emission 525 nm, read-out: Ca assay IC50. An outline of the steps:
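Serum-starved (2 h) human Maverick/293 cells loaded with calcium dye for 50 min at 37 °C, then antagonist preincubated 15-30 min before serotonin challenge. Calcium fluorescence (ex 485/em 525 nm) recorded for 80 s; peak-based % inhibition fitted sigmoidally for IC50.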
A general note: Calcium flux is commonly read through the fluorescence of an indicator in the cells.
For `COc1ccc(S(=O)(=O)N[C@H]2CCOC2)cc1C(=O)Nc1cc(Cl)cc(Cl)c1` [Compound 86, (S)—N-(3,5-Dichlorophenyl)-2-methoxy-5-(N-(tetrahydrofuran-3-yl)sulfamoyl) benzamide], the pIC50 (in general, the IC50 on a negative log10 scale, so that one unit is a factor of ten) was 8.74. Turning to `COc1ccc(S(=O)(=O)N[C@H]2CCOC2)cc1C(=O)Nc1cc(F)cc(C#N)c1` [Compound 87, (S)—N-(3-Cyano-5-fluorophenyl)-2-methoxy-5-(N-(tetrahydrofuran-3-yl)sulfamoyl)benzamide], the pIC50 is 7.54. As to `COc1ccc(S(=O)(=O)N[C@H]2CCOC2)cc1C(=O)Nc1ccc(F)c(F)c1F` [Compound 88, (S)-2-Methoxy-5-(N-(tetrahydrofuran-3-yl)sulfamoyl)-N-(2,3,4-trifluorophenyl) benzamide], the pIC50 is 7.55. The value for `COc1ccc(S(=O)(=O)N[C@H]2CCOC2)cc1C(=O)Nc1ccc(C#N)c(Cl)c1` [Compound 89, (S)—N-(3-Chloro-4-cyanophenyl)-2-methoxy-5-(N-(tetrahydrofuran-3-yl)sulfamoyl)benzamide] was 5.71; that for `COc1ccc(S(=O)(=O)N[C@H]2CCOC2)cc1C(=O)Nc1ccc(C#N)c(F)c1` [Compound 90] was 5.87; that for `COc1ccc(S(=O)(=O)N[C@H]2CCOC2)cc1C(=O)Nc1c(F)cc(Cl)cc1F` [Compound 91, (S)—N-(4-Chloro-2,6-difluorophenyl)-2-methoxy-5-(N-(tetrahydrofuran-3-yl)sulfamoyl)benzamide] was 7.04. On to `COc1ccc(S(=O)(=O)N[C@H]2CCOC2)cc1C(=O)Nc1cccc(C#N)c1F` [Compound 92, (S)—N-(3-Cyano-2-fluorophenyl)-2-methoxy-5-(N-(tetrahydrofuran-3-yl)sulfamoyl)benzamide], for which the pIC50 is 6.87. On to `COc1ccc(S(=O)(=O)N[C@H]2CCOC2)cc1C(=O)Nc1c(F)ccc(Cl)c1F` [Compound 93, (S)—N-(3-Chloro-2,6-difluorophenyl)-2-methoxy-5-(N-(tetrahydrofuran-3-yl)sulfamoyl)benzamide], for which the pIC50 is 5.97. Under `COc1ccc(S(=O)(=O)N[C@H]2CCOC2)cc1C(=O)Nc1cc(Cl)cc(C#N)c1` [Compound 94, (S)—N-(3-Chloro-5-cyanophenyl)-2-methoxy-5-(N-(tetrahydrofuran-3-yl)sulfamoyl)benzamide] stands 7.92; under `COc1ccc(S(=O)(=O)N[C@H]2CCOC2)cc1C(=O)Nc1ccc(F)c(C#N)c1` [Compound 95, (S)—N-(3-Cyano-4-fluorophenyl)-2-methoxy-5-(N-(tetrahydrofuran-3-yl)sulfamoyl)benzamide], 6.19.

For the molecule `COc1ccc(S(=O)(=O)N[C@H]2CCOC2)cc1C(=O)Nc1cc(F)cc(F)c1Cl` [Compound 96, (S)—N-(2-Chloro-3,5-difluorophenyl)-2-methoxy-5-(N-(tetrahydrofuran-3-yl)sulfamoyl)benzamide], the pIC50 is 7.08.

With `COc1ccc(S(=O)(=O)N[C@H]2CCOC2)cc1C(=O)Nc1cc(F)c(F)c(F)c1` [Compound 97, (S)-2-Methoxy-5-(N-(tetrahydrofuran-3-yl)sulfamoyl)-N-(3,4,5-trifluorophenyl) benzamide], the pIC50 is 6.73. Turning to `COc1ccc(S(=O)(=O)N[C@H]2CCOC2)cc1C(=O)Nc1cc(F)c(C#N)cc1F` [Compound 98, (S)—N-(4-Cyano-2,5-difluorophenyl)-2-methoxy-5-(N-(tetrahydrofuran-3-yl)sulfamoyl)benzamide], the pIC50 was 7.43. The value for `COc1ccc(S(=O)(=O)N[C@H]2CCOC2)cc1C(=O)Nc1ccccc1F` [Compound 99, (S)—N-(2-Fluorophenyl)-2-methoxy-5-(N-(tetrahydrofuran-3-yl)sulfamoyl) benzamide] was 8.80. As to `COc1ccc(S(=O)(=O)N[C@H]2CCOC2)cc1C(=O)Nc1cccc(F)c1` [Compound 100, (S)—N-(3-Fluorophenyl)-2-methoxy-5-(N-(tetrahydrofuran-3-yl)sulfamoyl) benzamide], the pIC50 was 8.34. In the case of `COc1ccc(S(=O)(=O)N[C@H]2CCOC2)cc1C(=O)Nc1ccc(C(F)(F)F)cc1` [Compound 101, (S)-2-Methoxy-5-(N-(tetrahydrofuran-3-yl)sulfamoyl)-N-(4-(trifluoromethyl)phenyl)benzamide], the negative-log IC50 (pIC50) is 6.66. The value for `COc1ccc(S(=O)(=O)N[C@H]2CCOC2)cc1C(=O)Nc1cccc(C#N)c1` [Compound 102, (S)—N-(3-cyanophenyl)-2-methoxy-5-(N-(tetrahydrofuran-3-yl)sulfamoyl) benzamide] was 6.36; that for `COc1ccc(S(=O)(=O)N[C@H]2CCOC2)cc1C(=O)Nc1c(F)cccc1Cl` [Compound 103, (S)—N-(2-Chloro-6-fluorophenyl)-2-methoxy-5-(N-(tetrahydrofuran-3-yl)sulfamoyl)benzamide] was 8.08; that for `COc1ccc(S(=O)(=O)N[C@H]2CCOC2)cc1C(=O)Nc1ccc(C#N)cc1` [Compound 104, (S)—N-(4-Cyanophenyl)-2-methoxy-5-(N-(tetrahydrofuran-3-yl)sulfamoyl) benzamide] was 6.70. Regarding `COc1ccc(S(=O)(=O)N[C@H]2CCOC2)cc1C(=O)Nc1c(F)cccc1F` [Compound 105, (S)—N-(2,6-Difluorophenyl)-2-methoxy-5-(N-(tetrahydrofuran-3-yl)sulfamoyl) benzamide], the pIC50 was 7.92. With `COc1ccc(S(=O)(=O)N[C@H]2CCOC2)cc1C(=O)Nc1ccc(OC(F)F)cc1` [Compound 106, (S)—N-(4-(Difluoromethoxy)phenyl)-2-methoxy-5-(N-(tetrahydrofuran-3-yl)sulfamoyl)benzamide], the negative logarithm of the IC50 (pIC50) was 6.22. Take `COc1ccc(S(=O)(=O)N[C@H]2CCOC2)cc1C(=O)Nc1cccc(OC(F)F)c1` [Compound 107, (S)—N-(3-(Difluoromethoxy)phenyl)-2-methoxy-5-(N-(tetrahydrofuran-3-yl)sulfamoyl)benzamide]: the negative logarithm of the IC50 (pIC50) was 7.57. Under `COc1ccc(S(=O)(=O)N[C@H]2CCOC2)cc1C(=O)Nc1ccc(Cl)cc1` [Compound 108, (S)—N-(4-Chlorophenyl)-2-methoxy-5-(N-(tetrahydrofuran-3-yl)sulfamoyl) benzamide] stands 8.26; under `COc1ccc(S(=O)(=O)N[C@H]2CCOC2)cc1C(=O)Nc1cccc(C(F)(F)F)c1` [Compound 109, (S)-2-Methoxy-5-(N-(tetrahydrofuran-3-yl)sulfamoyl)-N-(3-(trifluoromethyl)phenyl)benzamide], 6.64. Consider `COc1ccc(S(=O)(=O)N[C@H]2CCOC2)cc1C(=O)Nc1cccc2c1cnn2C` [Compound 110, (S)-2-Methoxy-N-(1-methyl-1H-indazol-4-yl)-5-(N-(tetrahydrofuran-3-yl)sulfamoyl)benzamide], for which the pIC50 is 8.00. The value for `COc1ccc(S(=O)(=O)N[C@H]2CCOC2)cc1C(=O)Nc1ccc(F)c(F)c1` [Compound 111, (S)—N-(3,4-Difluorophenyl)-2-methoxy-5-(N-(tetrahydrofuran-3-yl)sulfamoyl) benzamide] was 8.89; that for `COc1ccc(S(=O)(=O)N[C@H]2CCOC2)cc1C(=O)Nc1ccc(F)c(Cl)c1` [Compound 112, (S)—N-(3-Chloro-4-fluorophenyl)-2-methoxy-5-(N-(tetrahydrofuran-3-yl)sulfamoyl)benzamide] was 8.54; that for `COc1ccc(S(=O)(=O)N[C@H]2CCOC2)cc1C(=O)Nc1cccc(F)c1F` [Compound 113, (S)—N-(2,3-Difluorophenyl)-2-methoxy-5-(N-(tetrahydrofuran-3-yl)sulfamoyl) benzamide] was 7.77. For `COc1ccc(S(=O)(=O)N[C@H]2CCOC2)cc1C(=O)Nc1ccc(Cl)cc1F` [Compound 114, (S)—N-(4-Chloro-2-fluorophenyl)-2-methoxy-5-(N-(tetrahydrofuran-3-yl)sulfamoyl)benzamide], the pIC50 is 9.40. `COc1ccc(S(=O)(=O)N[C@H]2CCOC2)cc1C(=O)Nc1ccc(Cl)c(F)c1` [Compound 115, (S)—N-(4-Chloro-3-fluorophenyl)-2-methoxy-5-(N-(tetrahydrofuran-3-yl)sulfamoyl)benzamide]: the pIC50 is 9.10.

With `COc1ccc(S(=O)(=O)N[C@H]2CCOC2)cc1C(=O)Nc1ccc(F)cn1` [Compound 116, (S)—N-(5-Fluoropyridin-2-yl)-2-methoxy-5-(N-(tetrahydrofuran-3-yl)sulfamoyl) benzamide], the pIC50 is 8.27.

On to `COc1ccc(S(=O)(=O)N[C@H]2CCOC2)cc1C(=O)Nc1ncc(F)cn1` [Compound 117, (S)—N-(5-Fluoropyrimidin-2-yl)-2-methoxy-5-(N-(tetrahydrofuran-3-yl)sulfamoyl)benzamide], for which the pIC50 is 7.19.

For the molecule `COc1ccc(S(=O)(=O)N[C@H]2CCOC2)cc1C(=O)Nc1ncc(F)cc1F` [Compound 118, (S)—N-(3,5-Difluoropyridin-2-yl)-2-methoxy-5-(N-(tetrahydrofuran-3-yl)sulfamoyl)benzamide], the pIC50 was 8.17. On to `COc1ccc(S(=O)(=O)N[C@H]2CCOC2)cc1C(=O)Nc1ncc(F)cc1Cl` [Compound 119], for which the pIC50 was 8.85. Regarding `COc1ccc(S(=O)(=O)N[C@H]2CCOC2)cc1C(=O)Nc1ncc(Cl)cc1F` [Compound 120, (S)—N-(5-Chloro-3-fluoropyridin-2-yl)-2-methoxy-5-(N-(tetrahydrofuran-3-yl)sulfamoyl)benzamide], the pIC50 was 7.30. As to `COc1ccc(S(=O)(=O)N[C@H]2CCOC2)cc1C(=O)Nc1ncccc1Cl` [Compound 121, (S)—N-(3-Chloropyridin-2-yl)-2-methoxy-5-(N-(tetrahydrofuran-3-yl)sulfamoyl) benzamide], the negative-log IC50 (pIC50) is 8.42.

For `COc1ccc(S(=O)(=O)N[C@H]2CCOC2)cc1C(=O)Nc1ccc(F)cc1` [Compound 122, (S)—N-(4-Fluorophenyl)-2-methoxy-5-(N-(tetrahydrofuran-3-yl)sulfamoyl) benzamide], the pIC50 was 9.22.
